Reference: article PMC6572064, “Discovery of 2-(1-(3-(4-Chloroxyphenyl)-3-oxo- propyl)pyrrolidine-3-yl)-1H-benzo[d]imidazole-4-carboxamide: A Potent Poly(ADP-ribose) Polymerase (PARP) Inhibitor for Treatment of Cancer” (Molecules, 2019)
Like-named read-outs stand apart in the source and are kept apart here.

Assays:
[1] = target: T1, PARP-1 (Homo sapiens, UniProt P09874); assay: PARP-1 inhibition assay (PARP-1 Chemiluminescent Assay Kit, BPS Bioscience); format: biochemical; conditions: 10 nM compound
T1 construct: purchased BPS Bioscience 80569
T1 sequence (P09874 whole entry): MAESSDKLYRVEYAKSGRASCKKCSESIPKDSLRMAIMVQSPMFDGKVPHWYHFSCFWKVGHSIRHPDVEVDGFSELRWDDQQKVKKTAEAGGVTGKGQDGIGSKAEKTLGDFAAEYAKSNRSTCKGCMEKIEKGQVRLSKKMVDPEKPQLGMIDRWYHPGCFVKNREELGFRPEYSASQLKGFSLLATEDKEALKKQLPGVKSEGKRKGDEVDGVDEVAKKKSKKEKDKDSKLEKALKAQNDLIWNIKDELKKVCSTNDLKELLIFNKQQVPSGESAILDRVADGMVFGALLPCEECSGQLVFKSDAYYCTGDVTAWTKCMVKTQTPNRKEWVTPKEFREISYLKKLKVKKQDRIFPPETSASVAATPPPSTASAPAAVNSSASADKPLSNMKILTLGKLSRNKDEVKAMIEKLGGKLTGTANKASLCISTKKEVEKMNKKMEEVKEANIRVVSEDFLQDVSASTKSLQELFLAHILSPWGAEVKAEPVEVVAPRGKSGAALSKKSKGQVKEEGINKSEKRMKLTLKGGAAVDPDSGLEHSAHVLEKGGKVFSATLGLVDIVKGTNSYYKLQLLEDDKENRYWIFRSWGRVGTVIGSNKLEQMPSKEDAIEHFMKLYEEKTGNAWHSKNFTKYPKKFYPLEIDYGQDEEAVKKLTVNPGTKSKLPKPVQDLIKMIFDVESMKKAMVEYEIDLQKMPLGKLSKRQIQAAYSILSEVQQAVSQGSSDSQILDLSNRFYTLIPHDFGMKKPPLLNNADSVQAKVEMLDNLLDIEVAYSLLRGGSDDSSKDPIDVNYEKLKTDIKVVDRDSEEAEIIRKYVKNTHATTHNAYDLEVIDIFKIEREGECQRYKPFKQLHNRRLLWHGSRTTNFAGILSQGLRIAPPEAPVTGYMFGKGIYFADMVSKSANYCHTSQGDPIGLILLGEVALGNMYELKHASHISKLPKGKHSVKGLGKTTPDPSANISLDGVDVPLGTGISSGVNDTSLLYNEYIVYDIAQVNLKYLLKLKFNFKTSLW
Experimental: (§1) The PARP-1 and PARP-2 inhibition assays were performed in outsourcing, by a CRO company, Shanghai Medicilon Inc. (Shanghai, China). […] Briefly, PARP-1 or PARP-2 biotinylated substrate was incubated with compounds or solvent control at varying concentrations and an assay buffer containing the PARP-1 or PARP-2 enzyme.

[2] = target: T2, PARP-2 (Homo sapiens, UniProt Q9UGN5); assay: PARP-2 inhibition assay (PARP-2 Chemiluminescent Assay Kit, BPS Bioscience); format: biochemical; conditions: 10 nM compound
T2 construct: purchased BPS Bioscience 80552
T2 sequence (Q9UGN5 whole entry): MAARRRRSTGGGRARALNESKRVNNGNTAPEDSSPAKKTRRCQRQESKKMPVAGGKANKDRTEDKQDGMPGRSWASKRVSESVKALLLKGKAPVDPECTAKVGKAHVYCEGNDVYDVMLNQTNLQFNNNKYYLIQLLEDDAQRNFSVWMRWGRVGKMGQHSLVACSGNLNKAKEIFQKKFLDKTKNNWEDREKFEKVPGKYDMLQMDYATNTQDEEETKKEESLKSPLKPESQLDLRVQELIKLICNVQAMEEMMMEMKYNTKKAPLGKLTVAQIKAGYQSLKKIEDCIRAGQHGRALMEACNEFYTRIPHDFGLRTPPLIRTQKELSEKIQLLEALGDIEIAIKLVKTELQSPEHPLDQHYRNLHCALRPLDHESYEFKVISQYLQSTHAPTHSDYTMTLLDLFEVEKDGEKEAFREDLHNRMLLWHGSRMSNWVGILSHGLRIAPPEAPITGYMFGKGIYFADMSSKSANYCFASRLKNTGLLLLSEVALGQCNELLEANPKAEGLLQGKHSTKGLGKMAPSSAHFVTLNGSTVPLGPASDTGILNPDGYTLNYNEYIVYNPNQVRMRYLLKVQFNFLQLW
Experimental: as §1

[3] = system: MDA-MB-436 (a BRCA-1-mutated breast cancer cell line); assay: Cell proliferation assay, three-day, CellTiter-Glo, MDA-MB-436; format: cell-based; conditions: Homo sapiens; for inhibition at 0.00508 µM: MDA-MB-436, MDA-MB-436, Conc. 0.00508 uM; for inhibition at 0.0152 µM: MDA-MB-436, MDA-MB-436, Conc. 0.0152 uM; for inhibition at 0.0457 µM: MDA-MB-436, MDA-MB-436, Conc. 0.0457 uM; for inhibition at 0.41 µM: MDA-MB-436, MDA-MB-436, Conc. 0.41 uM; for inhibition at 1.23 µM: MDA-MB-436, MDA-MB-436, Conc. 1.23 uM; for inhibition at 3.7 µM: MDA-MB-436, MDA-MB-436, Conc. 3.70 uM; for inhibition at 11.11 µM: MDA-MB-436, MDA-MB-436, Conc. 11.11 uM; for inhibition at 33.33 µM: MDA-MB-436, MDA-MB-436, Conc. 33.33 uM; for inhibition at 100 µM: MDA-MB-436, MDA-MB-436, Conc. 100.00 uM; for IC50: MDA-MB-436, 72 h, CellTiter-Glo, read-out: MDA-MB-436 IC50
How it was run: (§2)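 Cells seeded overnight in 384-well plates, then exposed to compounds (DMSO stock diluted in medium) for 72 h at 37 °C, 5% CO2. Viability read as CellTiter-Glo luminescence after 60 min at room temperature.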

[4] = system: CAPAN-1 (a BRCA-2-mutated pancreatic cancer cell line); assay: Cell proliferation assay, three-day, CellTiter-Glo, CAPAN-1; format: cell-based; conditions: Homo sapiens; for IC50: CAPAN-1, 72 h, CellTiter-Glo, read-out: CAPAN-1 IC50; for inhibition at 0.00508 µM: CAPAN-1, Conc. 0.00508 uM; for inhibition at 0.0152 µM: CAPAN-1, Conc. 0.0152 uM
How it was run: as §2

[5] = supplement sheet, read-out: 10 nM inhibition% PAPR-1
[6] = read-out: PARP-1 Inhibition % (10 nM)
[7] = supplement sheet, read-out: 10 nM inhibition% PAPR-2
[8] = read-out: PARP-2 Inhibition % (10 nM)

For NC(=O)c1cccc2[nH]c(C3CCN(CCN4C(=O)c5ccccc5C4=O)C3)nc12 (stereo not shown) [Compound 5ck, 2-(1-(2-(1,3-Dioxoisoindolin-2-yl)ethyl)pyrrolidin-3-yl)-1H-benzo[d]imidazole-4-carboxamide], the inhibition at 0.01 µM [1, 5] was 6.02%, the inhibition at 0.01 µM [1, 6] was 6% and the inhibition at 0.01 µM [2, 7] was 37.1%. For the same compound, the inhibition at 0.01 µM [2, 8] was 37.1%, the inhibition at 0.00508 µM ([3]; replicate 1, read-out: Inh % 1) was -0.108% and the inhibition at 0.00508 µM ([3]; replicate 2, read-out: Inh % 2) was -3.8%. For the same compound, the inhibition at 0.0152 µM ([3]; replicate 1, read-out: Inh % 1) was -3.1%, the inhibition at 0.0152 µM ([3]; replicate 2, read-out: Inh % 2) was -1.8% and the inhibition at 0.0457 µM ([3]; replicate 1, read-out: Inh % 1) was -9.3%. For the same compound, the inhibition at 0.0457 µM ([3]; replicate 2, read-out: Inh % 2) was -11.9%, the inhibition at 0.41 µM ([3]; replicate 1, read-out: Inh % 1) was -11% and the inhibition at 0.41 µM ([3]; replicate 2, read-out: Inh % 2) was -21.7%. The inhibition at 1.23 µM ([3]; replicate 1, read-out: Inh % 1) was -18.8%, the inhibition at 1.23 µM ([3]; replicate 2, read-out: Inh % 2) was -14.6% and the inhibition at 3.7 µM ([3]; replicate 1, read-out: Inh % 1) was -15.1%. For the same compound, the inhibition at 3.7 µM ([3]; replicate 2, read-out: Inh % 2) was -12.2%, the inhibition at 11.11 µM ([3]; replicate 1, read-out: Inh % 1) was -14.1% and the inhibition at 11.11 µM ([3]; replicate 2, read-out: Inh % 2) was -10%. It also gave an inhibition at 33.33 µM ([3]; replicate 1, read-out: Inh % 1) of -6.4%, an inhibition at 33.33 µM ([3]; replicate 2, read-out: Inh % 2) of -12% and an inhibition at 100 µM ([3]; replicate 1, read-out: Inh % 1) of -8.9%. For the same compound, the inhibition at 100 µM ([3]; replicate 2, read-out: Inh % 2) was -13.6%, the IC50 [3] was > 100 µM and the IC50 [4] was > 100 µM. The inhibition at 0.0457 µM ([4]; CAPAN-1, 0.0457 uM, replicate 1, read-out: Inh % 1) was -1.5%, the inhibition at 0.0457 µM ([4]; CAPAN-1, 0.0457 uM, replicate 2, read-out: Inh % 2) was -9.2% and the inhibition at […] ([4]; CAPAN-1, 0.14 uM, replicate 1, read-out: Inh % 1) was 8.7%. It also gave an inhibition at […] ([4]; CAPAN-1, 0.14 uM, replicate 2, read-out: Inh % 2) of -3.2%, an inhibition at 0.41 µM ([4]; CAPAN-1, 0.41 uM, replicate 1, read-out: Inh % 1) of 9% and an inhibition at 0.41 µM ([4]; CAPAN-1, 0.41 uM, replicate 2, read-out: Inh % 2) of -5.8%. It also gave an inhibition at 1.23 µM ([4]; CAPAN-1, 1.23 uM, replicate 1, read-out: Inh % 1) of 3.9%, an inhibition at 1.23 µM ([4]; CAPAN-1, 1.23 uM, replicate 2, read-out: Inh % 2) of -9.8% and an inhibition at 3.7 µM ([4]; CAPAN-1, 3.70 uM, replicate 1, read-out: Inh % 1) of 1.2%. For the same compound, the inhibition at 3.7 µM ([4]; CAPAN-1, 3.70 uM, replicate 2, read-out: Inh % 2) was 2.6%, the inhibition at 11.11 µM ([4]; CAPAN-1, 11.11 uM, replicate 1, read-out: Inh % 1) was -2.3% and the inhibition at 11.11 µM ([4]; CAPAN-1, 11.11 uM, replicate 2, read-out: Inh % 2) was -4.3%. For the same compound, the inhibition at 33.33 µM ([4]; CAPAN-1, 33.33 uM, replicate 1, read-out: Inh % 1) was 6.8%, the inhibition at 33.33 µM ([4]; CAPAN-1, 33.33 uM, replicate 2, read-out: Inh % 2) was 4.4% and the inhibition at 100 µM ([4]; CAPAN-1, 100.00 uM, replicate 1, read-out: Inh % 1) was -2.5%. For the same compound, the inhibition at 100 µM ([4]; CAPAN-1, 100.00 uM, replicate 2, read-out: Inh % 2) was -5.6%, the inhibition at 0.00508 µM ([4]; replicate 1, read-out: Inh % 1) was 2.6% and the inhibition at 0.00508 µM ([4]; replicate 2, read-out: Inh % 2) was 0.639%. For the same compound, the inhibition at 0.0152 µM ([4]; replicate 1, read-out: Inh % 1) was 6.1% and the inhibition at 0.0152 µM ([4]; replicate 2, read-out: Inh % 2) was -0.5%.
Compound NCCCN1CCC(c2nc3c(C(N)=O)cccc3[nH]2)C1 (stereo not shown) [Compound 5cl, 2-(1-(3-Aminopropyl)pyrrolidin-3-yl)-1H-benzo[d]imidazole-4-carboxamide] has an inhibition at 0.01 µM [1, 5] of 26.8%, an inhibition at 0.01 µM [1, 6] of 26.8% and an inhibition at 0.01 µM [2, 7] of 46.4%. It also gave an inhibition at 0.01 µM [2, 8] of 46.4%, an inhibition at 0.00508 µM ([3]; replicate 1, read-out: Inh % 1) of 4.5% and an inhibition at 0.00508 µM ([3]; replicate 2, read-out: Inh % 2) of -3.7%. For the same compound, the inhibition at 0.0152 µM ([3]; replicate 1, read-out: Inh % 1) was 0.4%, the inhibition at 0.0152 µM ([3]; replicate 2, read-out: Inh % 2) was -4.9% and the inhibition at 0.0457 µM ([3]; replicate 1, read-out: Inh % 1) was -13.5%. The inhibition at 0.0457 µM ([3]; replicate 2, read-out: Inh % 2) was -10.1%, the inhibition at 0.41 µM ([3]; replicate 1, read-out: Inh % 1) was -7.3% and the inhibition at 0.41 µM ([3]; replicate 2, read-out: Inh % 2) was -7.6%. For the same compound, the inhibition at 1.23 µM ([3]; replicate 1, read-out: Inh % 1) was -9%, the inhibition at 1.23 µM ([3]; replicate 2, read-out: Inh % 2) was -8.7% and the inhibition at 3.7 µM ([3]; replicate 1, read-out: Inh % 1) was -7.4%. It also gave an inhibition at 3.7 µM ([3]; replicate 2, read-out: Inh % 2) of -9.8%, an inhibition at 11.11 µM ([3]; replicate 1, read-out: Inh % 1) of -5.4% and an inhibition at 11.11 µM ([3]; replicate 2, read-out: Inh % 2) of -5.2%. It also gave an inhibition at 33.33 µM ([3]; replicate 1, read-out: Inh % 1) of 1.9%, an inhibition at 33.33 µM ([3]; replicate 2, read-out: Inh % 2) of -7% and an inhibition at 100 µM ([3]; replicate 1, read-out: Inh % 1) of 7.4%. The inhibition at 100 µM ([3]; replicate 2, read-out: Inh % 2) was 2.1%, the IC50 [3] was > 100 µM and the IC50 [4] was > 100 µM. The inhibition at 0.00508 µM ([4]; replicate 1, read-out: Inh % 1) was 0.0228%, the inhibition at 0.00508 µM ([4]; replicate 2, read-out: Inh % 2) was -3.6% and the inhibition at 0.0152 µM ([4]; replicate 1, read-out: Inh % 1) was -3.3%. It also gave an inhibition at 0.0152 µM ([4]; replicate 2, read-out: Inh % 2) of -4.8%, an inhibition at 0.0457 µM ([4]; CAPAN-1, Conc. 0.0457 uM, replicate 1, read-out: Inh % 1) of 0.238% and an inhibition at 0.0457 µM ([4]; CAPAN-1, Conc. 0.0457 uM, replicate 2, read-out: Inh % 2) of -10.3%. The inhibition at […] ([4]; CAPAN-1, Conc. 0.14 uM, replicate 1, read-out: Inh % 1) was 4.7%, the inhibition at […] ([4]; CAPAN-1, Conc. 0.14 uM, replicate 2, read-out: Inh % 2) was -9.8% and the inhibition at 0.41 µM ([4]; CAPAN-1, Conc. 0.41 uM, replicate 1, read-out: Inh % 1) was 1.3%. The inhibition at 0.41 µM ([4]; CAPAN-1, Conc. 0.41 uM, replicate 2, read-out: Inh % 2) was 5.2%, the inhibition at 1.23 µM ([4]; CAPAN-1, Conc. 1.23 uM, replicate 1, read-out: Inh % 1) was -5.5% and the inhibition at 1.23 µM ([4]; CAPAN-1, Conc. 1.23 uM, replicate 2, read-out: Inh % 2) was 3.8%. The inhibition at 3.7 µM ([4]; CAPAN-1, Conc. 3.70 uM, replicate 1, read-out: Inh % 1) was 4.6%, the inhibition at 3.7 µM ([4]; CAPAN-1, Conc. 3.70 uM, replicate 2, read-out: Inh % 2) was -3% and the inhibition at 11.11 µM ([4]; CAPAN-1, Conc. 11.11 uM, replicate 1, read-out: Inh % 1) was -2.8%. For the same compound, the inhibition at 11.11 µM ([4]; CAPAN-1, Conc. 11.11 uM, replicate 2, read-out: Inh % 2) was -3.6%, the inhibition at 33.33 µM ([4]; CAPAN-1, Conc. 33.33 uM, replicate 1, read-out: Inh % 1) was -7.9% and the inhibition at 33.33 µM ([4]; CAPAN-1, Conc. 33.33 uM, replicate 2, read-out: Inh % 2) was -7.8%. For the same compound, the inhibition at 100 µM ([4]; CAPAN-1, Conc. 100.00 uM, replicate 1, read-out: Inh % 1) was -10.8% and the inhibition at 100 µM ([4]; CAPAN-1, Conc. 100.00 uM, replicate 2, read-out: Inh % 2) was -6.6%.
